The compounds below were run against FGFR2 (Homo sapiens, UniProt P21802) (assay: FGFR wild type enzyme assay (HTRF KinEASE-TK), FGFR2). Conditions: Enz FGFR2 (nM), FGFR2 wild type enzyme assay.
Sequence of FGFR2 (P21802 399-821 limits assumed): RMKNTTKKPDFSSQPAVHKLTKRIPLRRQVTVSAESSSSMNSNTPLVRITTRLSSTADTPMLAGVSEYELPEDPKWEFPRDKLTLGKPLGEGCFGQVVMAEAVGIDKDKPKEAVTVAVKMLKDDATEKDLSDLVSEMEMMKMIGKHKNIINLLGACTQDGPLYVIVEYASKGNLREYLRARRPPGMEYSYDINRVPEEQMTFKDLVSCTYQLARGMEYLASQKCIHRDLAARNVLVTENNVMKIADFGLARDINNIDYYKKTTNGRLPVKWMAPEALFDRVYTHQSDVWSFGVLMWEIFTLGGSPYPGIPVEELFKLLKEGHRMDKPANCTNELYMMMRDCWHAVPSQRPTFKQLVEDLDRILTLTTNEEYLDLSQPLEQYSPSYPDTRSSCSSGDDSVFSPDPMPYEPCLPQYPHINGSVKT

Row | Structure (SMILES) | IC50 [nM]
1 | Cc1c(-c2cc(Sc3ccc(F)cc3C#N)c3c(C#N)cnn3c2)cnn1[C@H]1CCN(C)C(C)(C)C1 [Example 387, (S)-4-((2-cyano-4-fluorophenyl)thio)-6-(5-methyl-1-(1,2,2-trimethylpiperidin-4-yl)-1H-pyrazol-4-yl)pyrazolo[1,5-a]pyridine-3-carbonitrile] | 1
2 | Cc1c(-c2cc(Sc3ccc(F)cc3C#N)c3c(C#N)cnn3c2)cnn1[C@@H]1CCN(C)C(C)(C)C1 [Example 388, (R)-4-((2-cyano-4-fluorophenyl)thio)-6-(5-methyl-1-(1,2,2-trimethylpiperidin-4-yl)-1H-pyrazol-4-yl)pyrazolo[1,5-a]pyridine-3-carbonitrile] | 0.5
3 | Cc1c(-c2cc(Sc3ncc(F)cc3F)c3c(C#N)cnn3c2)cnn1[C@H]1CCN(C)C(C)(C)C1 [Example 389, (S)-4-((3,5-difluoropyridin-2-yl)thio)-6-(5-methyl-1-(1,2,2-trimethylpiperidin-4-yl)-1H-pyrazol-4-yl)pyrazolo[1,5-a]pyridine-3-carbonitrile] | 5
4 | Cc1c(-c2cc(Sc3ncc(F)cc3F)c3c(C#N)cnn3c2)cnn1[C@@H]1CCN(C)C(C)(C)C1 [Example 390, (R)-4-((3,5-difluoropyridin-2-yl)thio)-6-(5-methyl-1-(1,2,2-trimethylpiperidin-4-yl)-1H-pyrazol-4-yl)pyrazolo[1,5-a]pyridine-3-carbonitrile] | 42
5 | Cc1c(-c2cc(Sc3ccc(F)cc3C#N)c3c(C#N)cnn3c2)cnn1[C@H]1CC[C@H](N(C)CCO)CC1 [Example 391, 4-((2-cyano-4-fluorophenyl)thio)-6-(1-((1r,4r)-4-((2-hydroxyethyl)(methyl)ami-no)cyclohexyl)-5-methyl-1H-pyrazol-4-yl)pyrazolo[1,5-a]pyridine-3-carbonitrile] | 1
6 | CN(C)[C@H]1CC[C@@H](n2cc(-c3cc(Sc4ncccc4F)c4c(C#N)cnn4c3)nn2)CC1 [Example 392, 6-[1-[4-(dimethylamino)cyclohexyl]triazol-4-yl]-4-[(3-fluoro-2-pyridyl)sulfanyl] pyrazolo [1,5-a]pyridine-3-carbonitrile] | 12
7 | CC(=O)N[C@H]1CC[C@@H](n2cc(-c3cc(Sc4ncccc4F)c4c(C#N)cnn4c3)c(C)n2)CC1 [Example 393, N-((1s,4s)-4-(4-(3-cyano-4-((3-fluoropyridin-2-yl)thio)pyrazolo[1,5-a]pyridin-6-yl)-3-methyl-1H-pyrazol-1-yl)cyclohexyl)acetamide] | 6
8 | CC(=O)N[C@H]1CC[C@@H](n2cc(-c3cc(Sc4ccccc4C#N)c4c(C#N)cnn4c3)c(C)n2)CC1 [Example 394, N-((1s,4s)-4-(4-(3-cyano-4-((2-cyanophenyl)thio)pyrazolo [1,5-a]pyridin-6-yl)-3-methyl-1H-pyrazol-1-yl)cyclohexyl)acetamide] | 3
9 | CN1CCC(n2ncc(-c3cc(Sc4ncccc4F)c4c(C#N)cnn4c3)c2Cl)CC1 [Example 395, 6-(5-chloro-1-(1-methylpiperidin-4-yl)-1H-pyrazol-4-yl)-4-((3-fluoropyridin-2-yl)thio)pyrazolo[1,5-a]pyridine-3-carbonitrile] | 3
10 | CN1CCC(n2ncc(-c3cc(Sc4ccccc4C#N)c4c(C#N)cnn4c3)c2Cl)CC1 [Example 396, 6-(5-chloro-1-(1-methylpiperidin-4-yl)-1H-pyrazol-4-yl)-4-((2-cyanophenyl)thio)pyrazolo [1,5-a]pyridine-3-carbonitrile] | 1
11 | CC(=O)N1CCC(n2ncc(-c3cc(Sc4ncccc4F)c4c(C#N)cnn4c3)c2F)CC1 [Example 397, 6-(1-(1-acetylpiperidin-4-yl)-5-fluoro-1H-pyrazol-4-yl)-4-((3-fluoropyridin-2-yl)thio)pyrazolo[1,5-a]pyridine-3-carbonitrile] | 5
12 | CC(=O)N1CCC(n2ncc(-c3cc(Sc4ccccc4C#N)c4c(C#N)cnn4c3)c2F)CC1 [Example 398, 6-(1-(1-acetylpiperidin-4-yl)-5-fluoro-1H-pyrazol-4-yl)-4-((2-cyanophenyl)thio)pyrazolo [1,5-a]pyridine-3-carbonitrile] | 2
